Where two headings read alike, the source gives them in different places.
How the values were obtained:
Format in all cases: cell-based
[1] = system: H226 human lung cancer cell line; assay: Cytotoxic activity of dimers against H226 cells
Text: (§1) H226 is a human lung cancer cell line. N87 is a human gastric cancer cell line. OVCAR3 is a human ovarian cancer cell line. HCT116 is a human colon cancer cell line. HCT116/VM46 is a human colon cancer cell line that is multi-drug and paclitaxel resistant.

[2] = system: HCT116/VM46 human colon cancer cell line (multi-drug and paclitaxel resistant); assay: Cytotoxic activity of dimers against HCT116/VM46 cells
Text: as §1

[3] = system: N87 human gastric cancer cell line; assay: Cytotoxic activity of dimers against N87 cells; settings: read-out: Cell Line (IC50, nM) N87
Text: as §1

[4] = system: HCT116 human colon cancer cell line; assay: Cytotoxic activity of dimers against HCT116 cells
Text: as §1

[5] = system: OVCAR3 human ovarian cancer cell line; assay: Cytotoxic activity of dimers against OVCAR3 cells
Text: as §1

SMILES | IC50 ([1]; Homo sapiens, NCI-H226, read-out: Cell Line (IC50, nM) H226) | IC50 ([2]; Homo sapiens, HCT-116/VM46, Table 4) | IC50 ([3]; Homo sapiens) | IC50 ([4]; HCT-116, Table 4) | IC50 ([5]; Homo sapiens, OVCAR-3, read-out: Cell Line (IC50, nM) OVCAR3) | IC50 ([1]; Table 4, H226 human lung cancer cell line, read-out: Cell Line (IC50, nM) H226) | IC50 ([2]; Table 4) | IC50 ([3]; Table 4, N87 human gastric cancer cell line) | IC50 ([4]; Table 4) | IC50 ([5]; Table 4, OVCAR3 human ovarian cancer cell line, read-out: Cell Line (IC50, nM) OVCAR3)
CN1CCN(c2ccc(C3=CN4C(=O)c5cc6c(cc5NC[C@@H]4C3)OCCCOc3cc4c(cc3OCCCCCCCCO6)C(=O)N3C=C(c5ccc(N6CCN(C)CC6)cc5)C[C@H]3C=N4)cc2)CC1 [IId-3] | 0.035 nM | 0.033 nM | 0.072 nM | 0.045 nM | 0.26 nM | – | – | – | – | –
CN1CCN(c2ccc(C3=CN4C(=O)c5cc6c(cc5NC[C@@H]4C3)OCCCOc3cc4c(cc3OCCCCCCCCO6)C(=O)N3C=C(c5ccc(N6CCN(C)CC6)cc5)C[C@H]3CN4)cc2)CC1 [IId-4] | – | – | – | – | – | 8.1 nM | 4.8 nM | 12 nM | 2 nM | 20 nM

From patent US9902740B2, “Macrocyclic benzodiazepine dimers, conjugates thereof, preparation and uses” (BRISTOL-MYERS SQUIBB COMPANY, priority 2015, dated 2018)
